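Values below derive from 48-hour exposures of cells grown in 96-well plates, with endpoints linearly interpolated between the two concentrations bracketing the appropriate inhibition level. Here, GI50 denotes the concentration required for 50% inhibition of growth.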 The source made the active and inactive calls. Rule as the data show it: active = GI50 up to about 1.1 µM and inactive = higher.
What was measured:
Assay in all cases: NCI anticancer screen, dose series, 48 h
786-0 = test system: 786-0
A498 = test system: A498
A549 = test system: A549
ACHN = test system: ACHN
BT-549 = test system: BT-549
CAKI-1 = test system: CAKI-1
CCRF-CEM = test system: CCRF-CEM
COLO 205 = test system: COLO 205
DLD-1 = test system: DLD-1
DMS-273 = test system: DMS-273
DU-145 = test system: DU-145
EKVX = test system: EKVX
HCC 2998 = test system: HCC 2998
HCT-116 = test system: HCT-116
HCT-15 = test system: HCT-15
HL-60 = test system: HL-60
HOP-18 = test system: HOP-18
HOP-62 = test system: HOP-62
HOP-92 = test system: HOP-92
HT-29 = test system: HT-29
Hs-578T = test system: Hs-578T
IGROV-1 = test system: IGROV-1
K562 = test system: K562
KM-20L2 = test system: KM-20L2
KM12 = test system: KM12
LOX IMVI = test system: LOX IMVI
M14 = test system: M14
MCF7 = test system: MCF7
MDA-MB-231 = test system: MDA-MB-231
MDA-MB-435 = test system: MDA-MB-435
MDA-N = test system: MDA-N
MOLT-4 = test system: MOLT-4
Malme-3M = test system: Malme-3M
NCI-H226 = test system: NCI-H226
NCI-H23 = test system: NCI-H23
NCI-H460 = test system: NCI-H460
NCI-H522 = test system: NCI-H522
NCI/ADR-RES = test system: NCI/ADR-RES
OVCAR-3 = test system: OVCAR-3
OVCAR-4 = test system: OVCAR-4
OVCAR-5 = test system: OVCAR-5
OVCAR-8 = test system: OVCAR-8
PC-3 = test system: PC-3
RPMI-8226 = test system: RPMI-8226
RXF 393 = test system: RXF 393
SF-268 = test system: SF-268
SF-295 = test system: SF-295
SF-539 = test system: SF-539
SK-MEL-28 = test system: SK-MEL-28
SK-MEL-2 = test system: SK-MEL-2
SK-MEL-5 = test system: SK-MEL-5
SK-OV-3 = test system: SK-OV-3
SN12C = test system: SN12C
SNB-19 = test system: SNB-19
SNB-75 = test system: SNB-75
SNB-78 = test system: SNB-78
SR = test system: SR
SW-620 = test system: SW-620
T47D = test system: T47D
TK-10 = test system: TK-10
U-251 = test system: U-251
UACC-257 = test system: UACC-257
UACC-62 = test system: UACC-62
UO-31 = test system: UO-31
DMS-114 = test system: DMS-114
LXFL 529 = test system: LXFL 529
M19-MEL = test system: M19-MEL
XF498 = test system: XF498

NN
GI50 (786-0): 204 µM (inactive)
GI50 (A498): 317 µM (inactive)
GI50 (A549): 145 µM (inactive)
GI50 (ACHN): 593 µM (inactive)
GI50 (BT-549): 1080 µM (inactive)
GI50 (CAKI-1): 445 µM (inactive)
GI50 (CCRF-CEM): 72.3 µM (inactive)
GI50 (COLO 205): 328 µM (inactive)
GI50 (DLD-1): 296 µM (inactive)
GI50 (DMS-273): 132 µM (inactive)
GI50 (DU-145): 793 µM (inactive)
GI50 (EKVX): 883 µM (inactive)
GI50 (HCC 2998): 1040 µM (inactive)
GI50 (HCT-116): 192 µM (inactive)
GI50 (HCT-15): 296 µM
GI50 (HL-60): 205 µM (inactive)
GI50 (HOP-18): 324 µM (inactive)
GI50 (HOP-62): 259 µM (inactive)
GI50 (HOP-92): 525 µM (inactive)
GI50 (HT-29): 234 µM (inactive)
GI50 (Hs-578T): 809 µM (inactive)
GI50 (IGROV-1): 357 µM (inactive)
GI50 (K562): 88.7 µM (inactive)
GI50 (KM-20L2): 231 µM (inactive)
GI50 (KM12): 480 µM (inactive)
GI50 (LOX IMVI): 86.3 µM (inactive)
GI50 (M14): 468 µM (inactive)
GI50 (MCF7): 179 µM (inactive)
GI50 (MDA-MB-231): 423 µM (inactive)
GI50 (MDA-MB-435): 210 µM (inactive)
GI50 (MDA-N): 150 µM (inactive)
GI50 (MOLT-4): 193 µM (inactive)
GI50 (Malme-3M): 881 µM (inactive)
GI50 (NCI-H226): 481 µM (inactive)
GI50 (NCI-H23): 359 µM (inactive)
GI50 (NCI-H460): 188 µM (inactive)
GI50 (NCI-H522): 335 µM (inactive)
GI50 (NCI/ADR-RES): 740 µM (inactive)
GI50 (OVCAR-3): 431 µM (inactive)
GI50 (OVCAR-4): 625 µM (inactive)
GI50 (OVCAR-5): 514 µM (inactive)
GI50 (OVCAR-8): 406 µM (inactive)
GI50 (PC-3): 628 µM (inactive)
GI50 (RPMI-8226): 303 µM (inactive)
GI50 (RXF 393): 453 µM (inactive)
GI50 (SF-268): 561 µM (inactive)
GI50 (SF-295): 574 µM (inactive)
GI50 (SF-539): 582 µM (inactive)
GI50 (SK-MEL-28): 585 µM (inactive)
GI50 (SK-MEL-2): 607 µM (inactive)
GI50 (SK-MEL-5): 594 µM (inactive)
GI50 (SK-OV-3): 1240 µM (inactive)
GI50 (SN12C): 403 µM (inactive)
GI50 (SNB-19): 887 µM (inactive)
GI50 (SNB-75): 851 µM (inactive)
GI50 (SNB-78): 1190 µM (inactive)
GI50 (SR): 100 µM (inactive)
GI50 (SW-620): 235 µM (inactive)
GI50 (T47D): 618 µM (inactive)
GI50 (TK-10): 893 µM (inactive)
GI50 (U-251): 410 µM (inactive)
GI50 (UACC-257): 851 µM (inactive)
GI50 (UACC-62): 358 µM (inactive)
GI50 (UO-31): 434 µM (inactive)

COc1ccc(C2Oc3cc(OC)c(OC)cc3C2CCl)cc1OC (configuration not stated)
GI50 (786-0): 56.8 µM (inactive)
GI50 (A498): 73.5 µM (inactive)
GI50 (A549): > 100 µM (inactive)
GI50 (ACHN): > 100 µM (inactive)
GI50 (CAKI-1): > 100 µM (inactive)
GI50 (CCRF-CEM): > 100 µM (inactive)
GI50 (COLO 205): > 100 µM (inactive)
GI50 (DLD-1): 67.5 µM (inactive)
GI50 (DMS-114): > 100 µM (inactive)
GI50 (DMS-273): > 100 µM (inactive)
GI50 (EKVX): > 100 µM (inactive)
GI50 (HCC 2998): > 100 µM (inactive)
GI50 (HCT-116): > 100 µM (inactive)
GI50 (HCT-15): > 100 µM
GI50 (HL-60): > 100 µM (inactive)
GI50 (HOP-62): > 100 µM (inactive)
GI50 (HOP-92): 74.3 µM (inactive)
GI50 (K562): > 100 µM (inactive)
GI50 (KM-20L2): > 100 µM (inactive)
GI50 (KM12): > 100 µM (inactive)
GI50 (LOX IMVI): > 100 µM (inactive)
GI50 (LXFL 529): > 100 µM (inactive)
GI50 (M14): > 100 µM (inactive)
GI50 (M19-MEL): > 100 µM (inactive)
GI50 (MOLT-4): > 100 µM (inactive)
GI50 (Malme-3M): > 100 µM (inactive)
GI50 (NCI-H226): > 100 µM (inactive)
GI50 (NCI-H23): > 10 µM (inactive)
GI50 (NCI-H460): > 100 µM (inactive)
GI50 (NCI-H522): > 100 µM (inactive)
GI50 (OVCAR-3): > 100 µM (inactive)
GI50 (OVCAR-4): 41.4 µM (inactive)
GI50 (OVCAR-5): > 100 µM (inactive)
GI50 (OVCAR-8): > 100 µM (inactive)
GI50 (RPMI-8226): > 100 µM (inactive)
GI50 (SF-268): > 100 µM (inactive)
GI50 (SF-539): > 100 µM (inactive)
GI50 (SK-MEL-28): > 100 µM (inactive)
GI50 (SK-MEL-2): > 100 µM (inactive)
GI50 (SK-MEL-5): 34.1 µM (inactive)
GI50 (SN12C): > 100 µM (inactive)
GI50 (SNB-19): > 100 µM (inactive)
GI50 (SNB-75): 44.8 µM (inactive)
GI50 (SR): > 100 µM (inactive)
GI50 (SW-620): > 100 µM (inactive)
GI50 (TK-10): > 100 µM (inactive)
GI50 (U-251): > 100 µM (inactive)
GI50 (UACC-257): > 100 µM (inactive)
GI50 (UACC-62): 25.6 µM (inactive)
GI50 (UO-31): > 100 µM (inactive)
GI50 (XF498): > 100 µM (inactive)

CCOC(=O)CC(=O)ON(C)C(C)=O
GI50 (786-0): > 100 µM (inactive)
GI50 (A498): > 100 µM (inactive)
GI50 (A549): > 100 µM (inactive)
GI50 (ACHN): > 100 µM (inactive)
GI50 (CAKI-1): > 100 µM (inactive)
GI50 (CCRF-CEM): > 100 µM (inactive)
GI50 (COLO 205): > 100 µM (inactive)
GI50 (DLD-1): > 100 µM (inactive)
GI50 (DMS-114): > 100 µM (inactive)
GI50 (EKVX): > 100 µM (inactive)
GI50 (HCC 2998): > 100 µM (inactive)
GI50 (HCT-116): > 100 µM (inactive)
GI50 (HCT-15): > 100 µM
GI50 (HL-60): > 100 µM (inactive)
GI50 (HOP-62): > 100 µM (inactive)
GI50 (HT-29): > 100 µM (inactive)
GI50 (IGROV-1): > 100 µM (inactive)
GI50 (K562): > 100 µM (inactive)
GI50 (KM-20L2): > 100 µM (inactive)
GI50 (KM12): > 100 µM (inactive)
GI50 (LOX IMVI): > 100 µM (inactive)
GI50 (LXFL 529): > 100 µM (inactive)
GI50 (M14): > 100 µM (inactive)
GI50 (M19-MEL): > 100 µM (inactive)
GI50 (MOLT-4): > 100 µM (inactive)
GI50 (Malme-3M): > 100 µM (inactive)
GI50 (NCI-H226): > 100 µM (inactive)
GI50 (NCI-H23): > 100 µM (inactive)
GI50 (NCI-H460): > 100 µM (inactive)
GI50 (NCI-H522): > 100 µM (inactive)
GI50 (OVCAR-3): > 100 µM (inactive)
GI50 (OVCAR-4): > 100 µM (inactive)
GI50 (OVCAR-5): > 100 µM (inactive)
GI50 (OVCAR-8): > 100 µM (inactive)
GI50 (RPMI-8226): > 100 µM (inactive)
GI50 (SF-268): > 100 µM (inactive)
GI50 (SF-295): > 100 µM (inactive)
GI50 (SF-539): > 100 µM (inactive)
GI50 (SK-MEL-2): > 100 µM (inactive)
GI50 (SK-MEL-5): > 100 µM (inactive)
GI50 (SK-OV-3): > 100 µM (inactive)
GI50 (SN12C): > 100 µM (inactive)
GI50 (SNB-19): > 100 µM (inactive)
GI50 (SNB-78): > 100 µM (inactive)
GI50 (SR): > 100 µM (inactive)
GI50 (SW-620): > 100 µM (inactive)
GI50 (TK-10): > 100 µM (inactive)
GI50 (U-251): > 100 µM (inactive)
GI50 (UACC-257): > 100 µM (inactive)
GI50 (UACC-62): > 100 µM (inactive)
GI50 (UO-31): > 100 µM (inactive)
GI50 (XF498): > 100 µM (inactive)
